Holding throughout (test): growth of human tumour cells (NCI), 48 h
Assay [1] deals with UO-31.
Assay [2] concerns IGROV-1.
Assay [3] relates to SF-539.
In assay [4] the test system is EKVX.
Assay [5] relates to RXF 393.
The subject of assay [6] is HCT-15.
Assay [7] deals with SF-268.
The subject of assay [8] is HL-60.
For assay [9], the system named is 786-0.
The test system of assay [10] is ACHN.
Assay [11] relates to NCI-H226.
For assay [12], the system named is RPMI-8226.
In assay [13] the test system is MOLT-4.
In assay [14] the test system is A498.

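Results reflect a 48-hour exposure of cells in 96-well plates to compound at five concentrations. GI50: concentration for 50% inhibition of growth.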 Calls of active or inactive are those of the source. No stated cut-off is given here; in the data, active = GI50 up to about 1.1 µM and inactive = higher.

`CCCCCCCCCCCCCCCC(=O)NCC(OCC)OCC`: the GI50 in [1] was > 100 µM (inactive); in assay [2] it was > 100 µM (inactive); in assay [3], > 100 µM (inactive); in assay [4], > 100 µM (inactive); in [5] it was > 100 µM (inactive); in [6], above 100 µM. Besides, the GI50 in [7], in assay [8], in assay [9], in assay [10] and in [11] was > 100 µM (inactive) in each case.

`CC(C)NC(=O)OCc1nnn2c1C(OC(=O)NC(C)C)CC2` (stereo not drawn): the GI50 in assay [1], in assay [2], in assay [3], in assay [4], in [12] and in assay [5] was > 100 µM (inactive) each time. Also, the GI50 in [6] is above 100 µM; in assay [9], > 100 µM (inactive); in [11] it was > 100 µM (inactive); in assay [13] it was > 100 µM (inactive).

Consider `O=C(NC(=O)c1cc2cc(Br)cc(Br)c2oc1=O)Oc1ccccc1`, for which the GI50 in [1] is > 100 µM (inactive); in assay [2] it was 50.7 µM (inactive); in assay [3], 87.3 µM (inactive); in [4], > 100 µM (inactive); in assay [12], > 100 µM (inactive); in assay [14] it was > 100 µM (inactive). Moreover, the GI50 in [5] was 28.2 µM (inactive); in assay [6] it was above 100 µM; in assay [7], > 100 µM (inactive); in [9], 45.3 µM (inactive); in assay [10], 21.7 µM (inactive); in assay [11], 78.2 µM (inactive). Moreover, the GI50 in assay [13] is > 100 µM (inactive).

In the case of `O=C1OC2(OC2c2ccccc2)c2ccccc21` (stereo not drawn), the GI50 in assay [1], in assay [2], in assay [3], in assay [4], in assay [12] and in assay [5] was > 100 µM (inactive) each time. In addition, the GI50 in [6] was above 100 µM; in assay [7] it was > 100 µM (inactive); in assay [8], > 100 µM (inactive); in [9] it was > 100 µM (inactive); in assay [10], > 100 µM (inactive); in [11], > 100 µM (inactive). In addition, the GI50 in [13] was > 100 µM (inactive).

Regarding `N#C/N=C1\NC(Cc2ccccc2)C(=O)N1CCc1c[nH]c2ccccc12` (stereo not drawn), the GI50 in assay [1] is 24 µM (inactive); in assay [2], 31.8 µM (inactive); in [3], 29.6 µM (inactive); in [4], 22.4 µM (inactive); in [12] it was 25.6 µM (inactive); in assay [5] it was > 10 µM (inactive). For the same compound, the GI50 in [6] is 29.4 µM; in assay [7] it was 15.7 µM (inactive); in assay [8], 22.1 µM (inactive); in assay [9], 18.5 µM (inactive); in assay [11], 37.1 µM (inactive); in [13], 18.4 µM (inactive).

`Cc1cc(C)nc(NS(=O)(=O)c2ccc(NC(=O)c3cccc4c(Nc5ccc(S(=O)(=O)N=C(N)N)cc5)c5ccc(Cl)cc5nc34)cc2)n1`: the GI50 was 41.8 µM (inactive) in [1]; 17.2 µM (inactive) in assay [3]; 30.8 µM (inactive) in assay [4]; 23.5 µM (inactive) in assay [12]; > 100 µM (inactive) in [14]; 18.9 µM (inactive) in [5]. For the same compound, the GI50 in assay [6] is 39.4 µM; in assay [7], 41 µM (inactive); in assay [9] it was 17.7 µM (inactive); in [10], 80.9 µM (inactive); in assay [13] it was 15.6 µM (inactive).

For `CCOC(=O)c1nn2c(nc1=O)sc1ccc3ccccc3c12`, the GI50 in assay [1], in assay [2], in assay [3], in assay [4], in assay [12] and in [5] was > 100 µM (inactive) in each case. Further, the GI50 is above 100 µM in assay [6]; > 100 µM (inactive) in assay [7]; > 100 µM (inactive) in [8]; > 100 µM (inactive) in assay [9]; > 100 µM (inactive) in assay [10]; > 100 µM (inactive) in [11]. Besides, the GI50 in assay [13] was > 100 µM (inactive).

The values above are taken from ChEMBL document CHEMBL1201862, “PubChem BioAssay data set” (2004).
